Measured values published in ChEMBL document CHEMBL3608211, “Exploration of Pharmacophore in Chrysosplenol C as Activator in Ventricular Myocyte Contraction” (ACS Med Chem Lett, 2015).
In brackets after ≈: the same amount, converted by molar mass. Activity calls are given as the source filed them. No cut-off for these calls is given here.

Columns and labels:
[1] = Positive inotropic effect in Sprague-Dawley rat ventricular myocytes assessed as change in ventricular cell contractility at 10 uM by video edge detector relative to control; format: functional, Ventricular myocyte
[2] = Positive inotropic effect in Sprague-Dawley rat ventricular myocytes assessed as change in ventricular cell contractility at 50 uM by video edge detector relative to control; format: functional, Ventricular myocyte
[3] = organism: Bos taurus; assay: Activation of cardiac myosin S1 ATPase in bovine sarcomere at 10 uM by spectrophometric analysis in presence of actin thin filament complex relative to control
[4] = organism: Oryctolagus cuniculus; assay: Activation of skeletal myosin S1 ATPase in rabbit psoas muscle at 10 uM in presence of actin thin filament complex; format: tissue-based
[5] = organism: Gallus gallus; assay: Activation of smooth myosin S1 ATPase in chicken gizzard at 10 uM in presence of actin thin filament complex
[6] = Positive inotropic effect in Sprague-Dawley rat ventricular myocytes assessed as change in ventricular cell contractility at 400 nM by video edge detector relative to control; format: functional, Ventricular myocyte
[7] = Positive inotropic effect in Sprague-Dawley rat ventricular myocytes assessed as change in ventricular cell contractility at 1 uM by video edge detector relative to control; format: functional, Ventricular myocyte
[8] = Solubility of the compound in DMSO/tyrode solution; format: physicochemical

| SMILES | Activity [1] [%] | Activity [2] [%] | Activity [3] [%] | Activity [4] | Activity [5] | Activity [6] [%] | Activity [7] [%] | solubility [8] [µg/mL] |
| --- | --- | --- | --- | --- | --- | --- | --- | --- |
| COc1ccc2c(=O)c(O)c(-c3ccc(O)cc3)oc2c1 | 8.87 | 23.1 |  |  |  |  |  |  |
| COc1cc(/C=C/C(=O)c2ccc(Cl)cc2O)ccc1O | 0 | 0 |  |  |  |  |  |  |
| COc1ccc2c(=O)c(OC)c(-c3ccc(O)cc3)oc2c1 | 42.1 | 38.6 | 30.9 | inactive | inactive |  |  |  |
| O=c1c(O)c(-c2ccc(O)cc2)oc2cc(Cl)ccc12 | 0 | 11 |  |  |  |  |  |  |
| COc1c(-c2cccc(O)c2)oc2cc(Cl)ccc2c1=O | 54.8 | 53.9 | 38.7 | inactive | inactive |  |  |  |
| COC(=O)N1CCN(Cc2cccc(NC(=O)Nc3ccc(C)nc3)c2F)CC1 [OMECAMTIV MECARBIL] |  |  | 80.4 |  |  | 59.3 | 33.8 |  |
| COc1cc(-c2oc3ccc(O)cc3c(=O)c2OC)ccc1O | 3.9 | 9.3 |  |  |  |  |  |  |
| COc1ccc2c(=O)c(OC)c(-c3ccc(Cl)cc3)oc2c1 | 0 | 0 |  |  |  |  |  |  |
| COc1ccc(-c2oc3cc(OC)c(OC)c(O)c3c(=O)c2OC)cc1OC [ARTEMETIN] | 8.7 | 21.6 |  |  |  |  |  |  |
| COc1cc(-c2oc3ccc(O)cc3c(=O)c2O)ccc1O | 0 | 0 |  |  |  |  |  |  |
| COc1cc(-c2oc3ccccc3c(=O)c2O)ccc1O | 10.5 | 10.3 |  |  |  |  |  |  |
| COc1cc(-c2oc3cccc(O)c3c(=O)c2OC)ccc1O | 4.2 | 12.3 | 0 |  |  |  |  |  |
| COc1cc(-c2cc(=O)c3ccc(Cl)cc3o2)ccc1O | 0 | 0 |  |  |  |  |  |  |
| COc1ccc2c(=O)c(O)c(-c3ccc(O)c(OC)c3)oc2c1 | 8.17 | 3.98 | 0 |  |  |  |  |  |
| COc1cc(-c2oc3cc(Cl)ccc3c(=O)c2OC)ccc1O | 43.9 | 41.8 | 36.4 | inactive | inactive |  |  |  |
| COc1cc(-c2oc3ccccc3c(=O)c2OC)ccc1O | 30.5 | 44.9 |  |  |  |  |  |  |
| COc1cc(-c2oc3cccc(O)c3c(=O)c2O)ccc1O | 0 | 0 |  |  |  |  |  |  |
| COc1cccc(-c2oc3cc(Cl)ccc3c(=O)c2OC)c1 | 16.6 | 23.6 |  |  |  |  |  |  |
| COc1c(-c2ccc(O)cc2)oc2cc(Cl)ccc2c1=O | 49.6 | 62.1 | 28.9 | inactive | inactive |  |  |  |
| COc1cc(-c2oc3cc(Cl)ccc3c(=O)c2O)ccc1O | 23.5 | 57.3 |  |  |  |  |  |  |
| COc1cccc(-c2oc3cc(Cl)ccc3c(=O)c2O)c1 | 0 | 0 |  |  |  |  |  |  |
| COc1ccc2c(=O)c(OC)c(-c3ccc(O)c(OC)c3)oc2c1 | 60.7 | 45.3 | 33.7 | inactive | inactive |  |  | 17.1 (≈ 52 µM) |
| COc1cc(-c2oc3cc(OC)c(O)c(O)c3c(=O)c2OC)ccc1O [CHRYSOSPLENOL C] | 16.6 | 53 | 28.1 | inactive | inactive |  |  | 14.1 (≈ 39.1 µM) |
| COc1c(-c2ccc(Cl)cc2)oc2cc(Cl)ccc2c1=O | 0 | 0 |  |  |  |  |  |  |
